# Measured values reported in patent US20180036355A1 (priority 2004, published 2018).
# Columns and labels:
# [1] = tested on: μ receptors for the opioids (MOR); experiment: mRNA expression of the μ receptors for the opioids in epithelial cells stimulated by microorganisms (real-time PCR); format: cell-based
# [2] = tested on: KC; experiment: Colonic KC mRNA expression in mice (real-time PCR); format: in vivo, Balb/c mice
# [3] = tested on: CB2; experiment: CB2 immunohistochemistry of colonic epithelial cells of mice; format: in vivo, Balb/c mice; details: mouse colon sections, 10^9 CFU once a day for fourteen days
# [4] = tested on: mu-opioid receptor (MOR); parameters: species or system Balb/c mice; details: mouse, in vivo
# [5] = tested on: CB1 cannabinoid receptors; experiment: mRNA expression of the CB1 receptors in epithelial cells stimulated by microorganisms (real-time PCR); format: cell-based
# [6] = tested on: TNFα; experiment: Colonic TNF alpha mRNA expression in mice (real-time PCR); format: in vivo, Balb/c mice
# [7] = tested on: MOR; experiment: MOR immunohistochemistry of colonic epithelial cells of mice; format: in vivo, Balb/c mice; details: mouse colon sections, 10^9 CFU once a day for fourteen days
# [8] = tested on: CB1; experiment: CB1 immunohistochemistry of colonic epithelial cells of mice; format: in vivo, Balb/c mice; details: mouse colon sections, 10^9 CFU once a day for fourteen days
# [9] = tested on: CB2 receptors; experiment: mRNA expression of the CB2 receptors in epithelial cells stimulated by microorganisms (real-time PCR); format: cell-based
# [10] = tested on: IL-1β; experiment: Colonic IL-1 beta mRNA expression in mice (real-time PCR); format: in vivo, Balb/c mice
# [11] = Balb/c mice, oral 10^9 CFU during 15 days
# [12] = mouse colon, 14 days of administration
Molecule,"effect of NFkappaB pathway inhibition on the expression of MOR ([1]; HT-29 cells pre-treated with CAPE, stimulated with L. acidophilus)","diminution of the expression of colonic inflammatory cytokines (KC) [2, 11]","decreased expression of KC mRNA level compared to controls [2, 12]",epithelial stained cells for CB2 [3],increase of MOR mRNA expression in the colon vs untreated animals [4],expression of MOR mRNA at the colonic level ([4]; po),"increase in the basal expression level of the mRNA of CB1 ([5]; ATCC HTB-38 epithelial cells, after 3 hours' incubation (FIG. 2))","CB1 expression ([5]; HT-29 or Caco-2 cells, 100 bacteria/cell, 0 to 6 hours, p<0.05)","induction of the μ receptors for the opioids (in words) ([1]; ATCC HTB-38 epithelial cells (FIG. 1), comparator TNF-α 10 ng/ml)","increase in the basal expression level of the mRNA of the μ receptors for the opioids ([1]; ATCC HTB-38 epithelial cells, after 3 hours' incubation (FIG. 1))","MOR expression in the epithelial cells (in words) ([1]; HT-29 or Caco-2 cells, 100 bacteria/cell, from the first hour of incubation)","diminution of the expression of colonic inflammatory cytokines (TNF alpha) [6, 11]","decreased expression of TNFα mRNA level compared to controls [6, 12]",epithelial stained cells for MOR [7],epithelial stained cells for CB1 [8],"increase in the basal expression level of the mRNA of the CB2 receptors ([9]; ATCC HTB-38 epithelial cells, after 3 hours' incubation (FIG. 3))","CB2 expression ([9]; HT-29 or Caco-2 cells, 100 bacteria/cell, 0 to 6 hours, p<0.01)","diminution of the expression of colonic inflammatory cytokines (IL-1 beta) [10, 11]","decreased expression of IL-1β mRNA level compared to controls [10, 12]"
"O=C(/C=C/c1ccc(O)c(O)c1)OCCc1ccccc1 [CAPE, caffeic acid phenetyl ester, reference compound]",did not induce modifications of the expression of MOR,–,–,–,–,–,–,–,–,–,–,–,–,–,–,–,–,–,–
Lactobacillus acidophilus,–,at least 50%,More than 50%,40±7%,24 fold,24±0.75,approximately 1000 fold,848±180,of the same order of magnitude as that obtained by TNF-α,approximately 1000 fold,strong MOR expression,at least 50%,More than 50%,60±10%,60±8%,approximately 100 fold,1498±333,at least 50%,More than 50%
